US8673882B2, “Inhibitors of autotaxin” (University of Tennessee Research Foundation, priority 2011, dated 2014)

Legend:
Format in all cases: biochemical
[1] = molecular target: recombinant human ATX (Homo sapiens, UniProt Q13822); test: Autotaxin inhibition screening assay (FS-3 FRET substrate); conditions: 10 μM compound; 2 nM recombinant human ATX; 1 μM FS-3; 2 h, 37° C.; read-out: ATX Activity, % control (10 μM)
Description: A 10 μM concentration of the compound is added to 2 nM recombinant human ATX and the FRET (Fluorescence Resonance Energy Transfer) ATX substrate FS-3.
As the first level of screen, 50 μl of recombinant-ATX (2 nM in final concentration) in assay buffer [(Tris 50 mM, NaCl 140 mM, KCl 5 mM, CaCl2 1 mM, MgCl2 1 mM (pH 8.0)] was mixed with 25 μL of FS-3 (Echelon Biosciences, Inc., Salt lake city, Utah), final concentration 1 μM, and 25 μl of test compound was dissolved in assay buffer with 40 μM bovine serum albumin (Sigma, St. Louis, Mo.) in 96-well Costar black-well plate. FS-3 fluorescence at excitation and emission wavelengths of 485 and 538 nm, respectively, were monitored using a FLEXstation II (Molecular Devices, Sunnyvale, Calif.) for 2 h of incubation at 37° C. The differences between time 0 and 120 min were calculated individually and normalized to the vehicle control. The mean±SD of triplicate samples was expressed as percentage of ATX activity. The ATX activity in the presence of the test compounds was compared to vehicle using the […] p<0.05 was considered significant.
The first level of testing was done using 10 μM concentrations of the compounds shown in Tables 1 and 2 added to 2 nM recombinant human ATX and the FRET substrate FS-3. After a 2 h incubation the amount of FS3 hydrolyzed was measured and the residual ATX activity was expressed as a percent of the vehicle-treated sample less the autolysis of FS3 in the absence of ATX.

[2] = molecular target: T1, NPP6 (Homo sapiens, UniProt Q6UWR7); test: NPP-6 inhibition assay (pNPPC substrate); conditions: 10 μM compound; 8.3 nM enzyme; 10 μM pNPPC; read-out: NPP6 Activity, % control (10 μM)
T1 sequence (Q6UWR7 23-419): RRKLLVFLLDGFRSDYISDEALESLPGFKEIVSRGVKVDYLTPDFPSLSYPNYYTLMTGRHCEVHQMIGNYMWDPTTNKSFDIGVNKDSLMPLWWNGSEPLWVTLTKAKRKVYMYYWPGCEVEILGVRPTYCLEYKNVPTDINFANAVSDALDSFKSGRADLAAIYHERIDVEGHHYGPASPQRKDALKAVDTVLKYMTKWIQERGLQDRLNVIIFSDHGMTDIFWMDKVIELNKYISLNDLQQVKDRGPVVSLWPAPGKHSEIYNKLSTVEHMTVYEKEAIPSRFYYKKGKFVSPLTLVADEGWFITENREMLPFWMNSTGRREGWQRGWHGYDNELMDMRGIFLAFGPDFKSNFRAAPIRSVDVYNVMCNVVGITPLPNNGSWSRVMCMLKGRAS
Description: (§1) NPP6 and NPP7 are the only NPP isoforms other than ATX that are known to utilize lysophospholipid phosphodiesters as substrates. Therefore, the specificity of the chemical compounds of the invention regarding ATX was addressed by determining the activity of NPP6 and NPP7 in the presence and absence of these analogs.
(§2) Inhibition of NPP6 and NPP7 was evaluated using recombinant, purified proteins, the synthetic substrate para-nitrophenylphosphocholine (pNPPC) and a Synergy II plate reader (BioTek, Winooski, Vt.). The final concentration of each enzyme was 8.3 nM and pNPPC was 10 μM. All analogs were tested at single 10 μM concentrations. Absorbance of liberated para-nitrophenol at 405 nm was determined up to 1 hour (where responses were linear) and was normalized to vehicle control.

[3] = molecular target: T2, NPP7 (Homo sapiens, UniProt Q6UWV6); test: NPP-7 inhibition assay (pNPPC substrate); conditions: 10 μM compound; 8.3 nM enzyme; 10 μM pNPPC; read-out: NPP7 Activity, % control (10 μM)
T2 sequence (Q6UWV6 22-458): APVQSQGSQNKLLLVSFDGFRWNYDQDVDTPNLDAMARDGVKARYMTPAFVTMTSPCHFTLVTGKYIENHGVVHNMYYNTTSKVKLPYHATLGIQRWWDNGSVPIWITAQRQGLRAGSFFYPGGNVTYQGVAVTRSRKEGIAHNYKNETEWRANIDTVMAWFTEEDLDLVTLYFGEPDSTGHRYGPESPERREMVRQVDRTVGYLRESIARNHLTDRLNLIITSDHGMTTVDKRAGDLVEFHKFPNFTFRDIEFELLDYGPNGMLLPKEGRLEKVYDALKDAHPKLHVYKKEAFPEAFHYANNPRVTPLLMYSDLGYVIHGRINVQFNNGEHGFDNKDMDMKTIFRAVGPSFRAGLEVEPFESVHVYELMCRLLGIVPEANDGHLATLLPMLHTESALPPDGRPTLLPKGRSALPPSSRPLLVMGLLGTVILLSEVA
Description: as §1, §2

[4] = molecular target: recombinant, purified human ATX (Homo sapiens, UniProt Q13822); test: Mechanism of autotaxin inhibition (IC50, Ki, Ki′; FS-3 hydrolysis); conditions: for IC50: 8.3 nM ATX, 1 μM FS-3, 15 μM BSA; for ATX Mechanism of inhibition: FS-3 0.3 μM to 20 μM, inhibitor 0, 0.5× and 2× IC50
Description: The mechanism of inhibition of ATX was determined using recombinant, purified human ATX and FS-3. Final ATX and FS-3 concentrations were 8.3 nM and 1 μM, respectively and the assay buffer with 15 μM fatty acid tree BSA. To calculate IC50, full dose responses were determined for the test compounds. […] Simultaneous non-linear regression, using, WinNonLin® 6.1 (Pharsight, Mountain View, Calif.) was used to assign the mechanism of inhibition. Ki and Ki′ values (the affinity for free enzyme and enzyme substrate complex, respectively) were determined by calculating the lowest averaged percent residuals for each mechanism derived from curve fitting using the Michealis-Menten equations for competitive, uncompetitive, mixed-mode, and non-competitive inhibition.

[5] = affinity for enzyme substrate complex

`CCCCCCCCCCCCCCCCS(=O)(=O)Nc1ccc(CP(=O)(O)O)cc1` [Compound 4, 4-(Hexadecane-1-sulfonylamino)benzyl phosphonic acid] was tested, and the remaining activity at 10 µM [1] was 24.1%, the remaining activity at 10 µM [2] was 102% and the remaining activity at 10 µM [3] was 93.5%.

Molecule `CCCCCCCCCCCCCCOc1ccc(CP(=O)(O)O)cc1` [Compound 10, 4-(Tetradecyloxy)benzylphosphonic acid] has a remaining activity at 10 µM [2] of 102% and a remaining activity at 10 µM [3] of 101%.

In the case of `CCCCCCCCCCCCC/C=C/c1ccc(CP(=O)(O)O)cc1` [Compound 18, (E)-4-(Pentadec-1-enyl)benzylphosphonic acid], the remaining activity at 10 µM [1] is reported as 18.8%, the remaining activity at 10 µM [2] is reported as 104% and the remaining activity at 10 µM [3] is reported as 97.7%.

`CCCCCCCCCC/C=C/c1ccc2cc(CP(=O)(O)O)ccc2c1` [Compound 30a, (E)-6-Dodec-1-enyl-naphthalen-2-yl-methylphosphonic acid] gave a remaining activity at 10 µM [1] of 61.3%, a remaining activity at 10 µM [2] of 103% and a remaining activity at 10 µM [3] of 100%.

In the case of `CCCCCCCCCCCCc1ccc2cc(CP(=O)(O)O)ccc2c1` [Compound 34a, 6-Dodecylnaphthalen-2-yl-methylphosphonic acid], the remaining activity at 10 µM [1] is reported as 19.9%, the remaining activity at 10 µM [2] is reported as 101% and the remaining activity at 10 µM [3] is reported as 98.8%.

For `CCCCCCCCCCCCCc1ccc2cc(CP(=O)(O)O)ccc2c1` [Compound 34b, 6-Tridecylnaphthalen-2-yl-methylphosphonic acid], the remaining activity at 10 µM [1] was 50.8%, the remaining activity at 10 µM [2] was 100% and the remaining activity at 10 µM [3] was 94.7%.

With `CCCCCCCCCCCCCCCc1ccc(C(O)P(=O)(O)O)cc1` (stereo not shown) [Compound 37, Hydroxy-4-pentadecylphenylmethylphosphonic acid] the remaining activity at 10 µM [1] was 9.2%, the IC50 [4] was 0.73 µM and the “ATX Mechanism of inhibition” value [4] was “Mixed”. For the same molecule, the Ki [4, 5] was 0.7 µM, the Ki ([4]; affinity for free enzyme) was 0.45 µM and the remaining activity at 10 µM [2] was 99.6%. It also gave a remaining activity at 10 µM [3] of 101%.

For `CCCCCCCCCCCCCCCc1ccc(C(F)P(=O)(O)O)cc1` (stereo not shown) [Compound 41, Fluoro-4-pentadecylphenylmethyl phosphonic acid], the remaining activity at 10 µM [1] was 42.3%, the IC50 [4] was 17.9 µM and the “ATX Mechanism of inhibition” value [4] was “Mixed”. It also gave a Ki [4, 5] of 5.54 µM, a Ki ([4]; affinity for free enzyme) of 4.97 µM and a remaining activity at 10 µM [2] of 101%. For the same molecule, the remaining activity at 10 µM [3] was 103%.

`CCCCCCCCCCCCCCCc1ccc(C(Cl)P(=O)(O)O)cc1` (stereo not shown) [Compound 42, Chloro-4-pentadecylphenylmethyl phosphonic acid] was tested, and the remaining activity at 10 µM [1] was 118%, the remaining activity at 10 µM [2] was 101% and the remaining activity at 10 µM [3] was 99.9%.

In the case of `CCCCCCCCCCCCCCCc1ccc(C(Br)P(=O)(O)O)cc1` (stereo not shown) [Compound 43, Bromo-4-pentadecylphenylmethyl phosphonic acid], the remaining activity at 10 µM [1] is reported as 60.1%, the IC50 [4] is reported as 10.1 µM and the “ATX Mechanism of inhibition” value [4] is reported as “Mixed”. For the same molecule, the Ki [4, 5] was 2.97 µM, the Ki ([4]; affinity for free enzyme) was 6.1 µM and the remaining activity at 10 µM [2] was 99.3%. It also gave a remaining activity at 10 µM [3] of 99.5%.

In the case of `CCCCCCCCCCCCCCCc1ccc(COP(=O)(O)O)cc1` [Compound 45, 4-pentadecylbenzyl dihydrogen phosphate], the remaining activity at 10 µM [1] is reported as 85.2%, the remaining activity at 10 µM [2] is reported as 101% and the remaining activity at 10 µM [3] is reported as 98.8%.

In the case of `CCCCCCCCCCCCCCCc1ccc(COP(O)(O)=S)cc1` [Compound 47, O-4-pentadecylbenzyl O,O-dihydrogen phosphorothioate], the IC50 [4] is reported as 1.54 µM, the “ATX Mechanism of inhibition” value [4] is reported as “Mixed” and the Ki [4, 5] is reported as 4.43 µM. For the same molecule, the Ki ([4]; affinity for free enzyme) was 4.45 µM, the remaining activity at 10 µM [2] was 98.8% and the remaining activity at 10 µM [3] was 92.9%.

`CCCCCCCCCCCCCC(=O)Nc1ccc(CP(=O)(O)O)cc1` [Compound S32826, 4-tetradecanoylaminobenzyl phosphonic acid, reference compound] was tested, and the remaining activity at 10 µM [2] was 102% and the remaining activity at 10 µM [3] was 101%.
